Key:
Format in all cases: cell-based
[1] = system: C3H/HeN mouse splenocytes stimulated with Concanavalin A (Con A); assay: Suppressive effect on mitogenic activity of mouse splenocytes in vitro, Con A as mitogen (MTT); conditions: Con A 5 μg/ml as mitogen, 3 days
Method: (§1) Experiment 1 Suppressive Effect on a Mitogenic Activity of Mouse Splenocytes In Vitro
(§2) In 96-well microtiter plate 5×10^5 C3H/HeN mouse splenocytes suspended in 0.1 ml of 10% fetal bovine serum-fortified RPMI 1640 medium containing 2 mM of sodium bicarbonate, 50 units/ml of penicillin, 50 μg/ml of streptomycin and 5×10^−5 M of 2-mercaptoethanol were added. Then, 5 μg/ml of Concanavalin A (Con A) or 10 μg/ml of lipopolysaccharide (LPS) as a mitogen and the compound of a pre-determined concentration of the present invention were added to each well so that a final volume of each well reached 0.2 ml. Each compound of the present invention was dissolved in dimethylsulfoxide (DMSO) and diluted with the above RPMI 1640 medium to adjust the final concentration of 100 ng/ml or less. The splenocytes in the 96-well microtiter plate were cultivated at 37° C. for 3 days in an incubator keeping the humidity 100%, carbon dioxide 5% and air 95%. Then, 25 μl of 6 mg/ml MTT [3-(4,5-dimethylthiazol-2-yl)-2,5-diphenyltetrazolium bromide] (Sigma) was added to the each well and cultivated at 37° C. for 4 hours under the same conditions. After the cultivation, 50 μl of 0.02 N hydrochloric acid in 20% sodium dodecyl sulfate (SDS) was added to formazan generated and left at 37° C. for 24 hours for dissolving formazan. An absorption intensity (OD) of formazan generated in proportion to the number of living cells was measured with an immunoreader (InterMed) equipped with a 570 nm filter (The Journal of Immunological Method, 65, 55-63, 1983). The 50% inhibitory concentration of a cell proliferation (IC 50) was calculated from a correlation between the concentration of the compound of the present invention and the absorption intensity.

[2] = system: C3H/HeN mouse splenocytes stimulated with lipopolysaccharide (LPS); assay: Suppressive effect on mitogenic activity of mouse splenocytes in vitro, LPS as mitogen (MTT); conditions: LPS 10 μg/ml as mitogen, 3 days
Method: as §1, §2

[3] = system: mouse thymoma strain EL4 cells; assay: Anti-proliferative activity on EL4 cells (MTT); conditions: 3 days
Method: Experiment 2 Anti-Proliferative Activity on EL4 Cells
In 96-well microtiter plate 4×10^4/0.1 ml of mouse thymoma strain EL4 cells were added and 0.1 ml of the compound of the present invention was added to the mixture so that the concentration was in the range of 0-5,000 ng/ml. After the cultivation for 3 days, the IC50 was calculated by the MTT method as described in Experiment 1.

[4] = system: IgE antibody production of human peripheral lymphocytes (anti-human CD 40, IL-4, IL-10); assay: Suppressive effect on the antibody production of human lymphocytes: IgE; conditions: 10 days, ELISA
Method: (§3) Experiment 5 Suppressive Effect on the Antibody Production of Human Lymphocytes
(§4) 1) Human Peripheral Blood
(§5) Human peripheral blood was drawn from healthy male adults by plastic syringes filled with heparin (final concentration 1.5%). Lymphocytes were collected immediately after blood was drawn.
RPMI medium (Nissui Pharmaceutical Co., Ltd.) containing 10% fetal bovine serum (HyClone Lab.) inactivated at 56° C. for 30 minutes, penicillin (100 units/ml) and streptomycin (100 μg/ml) (GIBCO) was used.
After the compound (I-839) of the present invention was dissolved in dimethylsulfoxide (Nakaraitesk) at […], the solution was diluted with the medium to adjust a final concentration to be 0.01 μg/ml −10 μg/ml. […]
(§6) In 96-well cultivating plate (Sumitomo bakelite) the lymphocytes were inoculated 2×10^5 cells per well, and the compound, anti-human CD 40 antigen (Pharmingen, 2 μg/ml), human recombinant interleukin-4 (IL-4) (Genzyme, 0.1 μg/ml) and human recombinant interleukin-10 (IL-10) (Genzyme, 0.2 μg/ml) were added and cultivated at 37° C. under 5% of CO2 (0.2 ml/well). After the cultivation for 10 days, the amount of antibody in a supernatant was quantified by ELISA method.
6) Quantification of the IgE Antibody
A commercial kit MESACUP IgE test (Medical & Biological Laboratories Co., Ltd.) was used for the quantification of the IgE. […]

[5] = system: IgG production of human peripheral lymphocytes; assay: Suppressive effect on the antibody production of human lymphocytes: IgG; conditions: 10 days, ELISA
Method: as §3, §4, §5
(§7) RPMI medium (Nissui Pharmaceutical Co., Ltd.) containing 10% fetal bovine serum (HyClone Lab.) inactivated at 56° C. for 30 minutes, penicillin (100 units/ml) and streptomycin (100 μg/ml) (GIBCO) was used. […]
as §6
(§8) 7) Quantification of the IgG and IgM Antibodies
(§9) ELISA method was used for the quantification. […] After washing three times with PBST, 100 μl of a sample diluted with PBS or 100 μl of human Plasma IgG standard solution or IgM standard solution (BioPur AG, Switzerland) of a pre-determined concentration was added and incubated at room temperature for 1 hour. […]

[6] = system: IgM production of human peripheral lymphocytes; assay: Suppressive effect on the antibody production of human lymphocytes: IgM; conditions: 10 days, ELISA
Method: as §3, §4, §5, §7, §6, §8, §9

EL-4 IC50 [3]: 0.8 ng/mL | IC50 IgE [4]: <0.0001 ng/mL | IC50 IgG [5]: <0.0001 ng/mL | IC50 IgM [6]: >1 ng/mL
SMILES: COc1cc(-c2ccc(O)cc2)c(OC)c(O)c1-c1ccc(OCC=C(Cl)Cl)c(O)c1 [Compound I-121]
ConA IC50 [1]: 0.8 ng/mL | LPS IC50 [2]: 1.2 ng/mL

— patent US7101915B1, “P-terphenyl compounds” (Shionogi & Co., Ltd., priority 1996, dated 2006)
